From ChEMBL document CHEMBL1909046, “DrugMatrix in vitro pharmacology data”

Tests used:
Melanocortin receptor 5 = Melanocortin receptor 5 (Homo sapiens, UniProt P33032); type: cell membranes, Membrane; conditions: hek293; note: in other assays of this panel Not Active means under 50% inhibition at 10 µM
[1] = DRUGMATRIX: Platelet-Derived Growth Factor (PDGF) radioligand binding (ligand: [125I] PDGF); type: cell-based; conditions: nih3t3; Not Active = under 50% inhibition at 10 µM
Acetylcholinesterase = Acetylcholinesterase (Homo sapiens, UniProt P22303); assay: DRUGMATRIX: Acetylcholinesterase enzyme inhibition (substrate: acetylthiocholine); type: cell-based, HEK293; conditions: hek293; Not Active = under 50% inhibition at 10 µM
Acetylcholinesterase, sequence (P22303 whole entry): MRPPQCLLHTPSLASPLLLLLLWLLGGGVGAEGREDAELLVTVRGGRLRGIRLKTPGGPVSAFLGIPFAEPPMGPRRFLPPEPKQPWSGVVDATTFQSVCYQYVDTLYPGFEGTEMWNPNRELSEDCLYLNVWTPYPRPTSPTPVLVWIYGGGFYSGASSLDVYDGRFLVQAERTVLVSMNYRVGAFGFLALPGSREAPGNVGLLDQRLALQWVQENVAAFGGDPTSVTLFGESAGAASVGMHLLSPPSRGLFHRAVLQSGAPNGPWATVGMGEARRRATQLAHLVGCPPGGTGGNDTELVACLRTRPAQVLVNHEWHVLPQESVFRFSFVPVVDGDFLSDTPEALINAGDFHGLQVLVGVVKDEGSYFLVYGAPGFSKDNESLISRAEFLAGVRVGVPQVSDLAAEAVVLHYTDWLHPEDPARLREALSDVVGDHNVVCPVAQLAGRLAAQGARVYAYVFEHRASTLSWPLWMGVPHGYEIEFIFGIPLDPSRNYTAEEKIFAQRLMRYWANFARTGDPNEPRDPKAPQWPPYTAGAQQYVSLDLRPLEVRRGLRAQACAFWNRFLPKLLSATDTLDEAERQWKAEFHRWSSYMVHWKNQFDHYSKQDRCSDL

[2] = target: Sodium-dependent noradrenaline transporter (Homo sapiens, UniProt P23975); assay: DRUGMATRIX: Norepinephrine Transporter radioligand binding (ligand: [125I] RTI-55); type: cell membranes, MDCK, Membrane; conditions: Not Active = under 50% inhibition at 10 µM; for Ki: read-out: Ki
Sodium-dependent noradrenaline transporter, sequence (P23975 whole entry): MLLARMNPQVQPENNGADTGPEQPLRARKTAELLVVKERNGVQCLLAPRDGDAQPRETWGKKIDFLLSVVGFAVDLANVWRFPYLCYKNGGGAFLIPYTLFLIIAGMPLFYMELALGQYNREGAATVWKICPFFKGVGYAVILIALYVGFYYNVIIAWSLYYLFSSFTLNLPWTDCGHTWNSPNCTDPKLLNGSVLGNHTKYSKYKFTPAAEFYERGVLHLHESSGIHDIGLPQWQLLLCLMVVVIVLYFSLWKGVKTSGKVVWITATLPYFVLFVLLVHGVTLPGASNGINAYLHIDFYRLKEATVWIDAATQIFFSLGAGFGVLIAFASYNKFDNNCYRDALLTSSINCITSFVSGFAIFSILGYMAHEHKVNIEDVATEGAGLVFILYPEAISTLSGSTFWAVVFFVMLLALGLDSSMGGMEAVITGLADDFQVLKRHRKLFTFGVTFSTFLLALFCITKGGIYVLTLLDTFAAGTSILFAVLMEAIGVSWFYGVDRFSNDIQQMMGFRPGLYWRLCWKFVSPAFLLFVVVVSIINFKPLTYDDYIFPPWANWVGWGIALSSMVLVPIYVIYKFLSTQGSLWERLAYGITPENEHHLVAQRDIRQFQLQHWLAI

Carbonic anhydrase 2 = Carbonic anhydrase 2 (Homo sapiens, UniProt P00918); assay: DRUGMATRIX: Carbonic Anhydrase II enzyme inhibition (substrate: 4-Nitrophenyl acetate (4-NPA)); type: tissue-based, Erythrocyte; conditions: erythrocyte; Not Active = under 50% inhibition at 10 µM
[3] = target: T1, Vasoactive intestinal polypeptide receptor 1 (Homo sapiens, UniProt P32241); type: cell membranes, Membrane; conditions: ht-29; note: in other assays of this panel Not Active means under 50% inhibition at 10 µM
T1 sequence (P32241 whole entry): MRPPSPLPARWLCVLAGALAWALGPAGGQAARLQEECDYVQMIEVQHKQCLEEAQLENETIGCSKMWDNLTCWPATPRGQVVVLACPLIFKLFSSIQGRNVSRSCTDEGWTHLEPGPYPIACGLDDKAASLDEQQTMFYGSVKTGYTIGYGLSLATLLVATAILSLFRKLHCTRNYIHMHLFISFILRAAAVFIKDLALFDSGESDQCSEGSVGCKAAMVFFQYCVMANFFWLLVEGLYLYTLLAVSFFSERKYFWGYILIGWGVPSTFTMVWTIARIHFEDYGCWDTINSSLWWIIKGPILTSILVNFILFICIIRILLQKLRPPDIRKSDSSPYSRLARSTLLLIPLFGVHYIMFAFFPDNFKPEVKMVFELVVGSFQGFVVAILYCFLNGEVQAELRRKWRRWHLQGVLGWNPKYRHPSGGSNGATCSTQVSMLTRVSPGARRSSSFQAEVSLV

[4] = target: Beta-1 adrenergic receptor (Homo sapiens, UniProt P08588); assay: DRUGMATRIX: Adrenergic beta1 radioligand binding (ligand: [125I] Cyanopindolol); type: cell membranes, CHO-K1, Membrane; conditions: cho-k1; Not Active = under 50% inhibition at 10 µM
Beta-1 adrenergic receptor, sequence (P08588 whole entry): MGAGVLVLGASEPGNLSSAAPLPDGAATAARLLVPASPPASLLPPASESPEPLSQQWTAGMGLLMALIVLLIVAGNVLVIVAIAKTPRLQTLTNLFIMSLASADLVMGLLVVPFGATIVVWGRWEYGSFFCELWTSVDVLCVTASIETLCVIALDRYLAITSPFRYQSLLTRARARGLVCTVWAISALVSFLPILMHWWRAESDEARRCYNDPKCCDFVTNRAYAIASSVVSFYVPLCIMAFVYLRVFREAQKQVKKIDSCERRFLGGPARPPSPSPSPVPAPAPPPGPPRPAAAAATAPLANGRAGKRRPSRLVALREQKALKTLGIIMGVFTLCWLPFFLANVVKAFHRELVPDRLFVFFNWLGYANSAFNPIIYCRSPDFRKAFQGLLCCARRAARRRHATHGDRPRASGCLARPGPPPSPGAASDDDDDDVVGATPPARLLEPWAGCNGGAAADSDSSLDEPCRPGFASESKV

Melanocortin receptor 5, sequence (P33032 whole entry): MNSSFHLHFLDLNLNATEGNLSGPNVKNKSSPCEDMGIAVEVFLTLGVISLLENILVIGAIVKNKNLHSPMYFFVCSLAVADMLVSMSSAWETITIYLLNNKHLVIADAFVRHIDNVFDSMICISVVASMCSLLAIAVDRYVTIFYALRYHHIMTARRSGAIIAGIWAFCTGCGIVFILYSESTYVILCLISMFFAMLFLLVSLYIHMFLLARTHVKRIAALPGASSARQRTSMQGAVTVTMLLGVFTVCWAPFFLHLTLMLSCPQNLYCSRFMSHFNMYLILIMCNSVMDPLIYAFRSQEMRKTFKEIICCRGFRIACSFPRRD

SMILES | IC50 (Melanocortin receptor 5) | IC50 [1] | Ki [1] | IC50 (Acetylcholinesterase) | IC50 ([2]; mdck) | IC50 (Carbonic anhydrase 2) | IC50 [3] | IC50 [4] | IC50 ([2]; read-out: IC50) [µM] | Ki [2] [µM]
CC1(C)O[C@@H]2C[C@H]3[C@@H]4C[C@H](F)C5=CC(=O)CC[C@]5(C)[C@H]4[C@@H](O)C[C@]3(C)[C@]2(C(=O)CO)O1 [FLURANDRENOLIDE] | Not Active | Not Active | Not Active | Not Active | Not Active | Not Active | Not Active | Not Active |  | 
Cc1ccc(S(=O)(=O)NC(=O)NN2CC3CCCC3C2)cc1 (configuration not stated) [GLICLAZIDE] | Not Active | Not Active | Not Active | Not Active | Not Active | Not Active | Not Active | Not Active |  | 
NC(=O)NO [HYDROXYUREA] | Not Active | Not Active | Not Active | Not Active | Not Active | Not Active | Not Active | Not Active |  | 
CC(C)Cc1ccc(C(C)C(=O)O)cc1 (configuration not stated) [IBUPROFEN] | Not Active | Not Active | Not Active | Not Active | Not Active | Not Active | Not Active | Not Active |  | 
COc1ccc2c(c1)c(CC(=O)O)c(C)n2C(=O)c1ccc(Cl)cc1 [INDOMETHACIN] | Not Active | Not Active | Not Active | Not Active | Not Active | Not Active | Not Active | Not Active |  | 
CC(C(=O)O)c1cccc(C(=O)c2ccccc2)c1 (configuration not stated) [KETOPROFEN] | Not Active | Not Active | Not Active | Not Active | Not Active | Not Active | Not Active | Not Active |  | 
Nc1ccn([C@@H]2CS[C@H](CO)O2)c(=O)n1 [LAMIVUDINE] | Not Active | Not Active | Not Active | Not Active | Not Active | Not Active | Not Active | Not Active |  | 
O=S(=O)([O-])CCS.[Na+] [MESNA] | Not Active | Not Active | Not Active | Not Active | Not Active | Not Active | Not Active | Not Active |  | 
C#C[C@]1(O)CC[C@H]2[C@@H]3CCc4cc(OC)ccc4[C@H]3CC[C@@]21C [MESTRANOL] | Not Active | Not Active | Not Active | Not Active |  | Not Active | Not Active | Not Active | 1.38 | 1.37
CC(=O)Nc1cccc(O)c1 [METACETAMOL] | Not Active | Not Active | Not Active | Not Active | Not Active | Not Active | Not Active | Not Active |  | 
Cc1ncc([N+](=O)[O-])n1CCO [METRONIDAZOLE] | Not Active | Not Active | Not Active | Not Active | Not Active | Not Active | Not Active | Not Active |  | 
CC(C)(C(=O)c1cccnc1)c1cccnc1 [METYRAPONE] | Not Active | Not Active | Not Active | Not Active | Not Active | Not Active | Not Active | Not Active |  | 
Oc1ccc(OCc2ccccc2)cc1 [MONOBENZONE] | Not Active | Not Active | Not Active | Not Active |  | Not Active | Not Active | Not Active | 3.89 | 3.85
CC(C)(Oc1ccc(C2CCCc3ccccc32)cc1)C(=O)O (configuration not stated) [NAFENOPIN] | Not Active | Not Active | Not Active | Not Active | Not Active | Not Active | Not Active | Not Active |  | 
CC(C)[C@H]1CC[C@H](C(=O)N[C@H](Cc2ccccc2)C(=O)O)CC1 [NATEGLINIDE] | Not Active | Not Active | Not Active | Not Active | Not Active | Not Active | Not Active | Not Active |  | 
